{
  "source": "patent US8575145B2",
  "about": "“Triazolopyridine compounds as PIM kinase inhibitors” (Array BioPharma Inc., priority 2008, dated 2013)",
  "key": {"[1]": {"test_system": "C57BL/6 mice immunized with hen egg lysozyme", "assay": "T Cell In Vivo Functional Assay (HEL immunization, ex vivo recall)", "parameters": "species or system mouse", "settings": "200 mg/kg oral twice a day, 7 days; relative to vehicle", "procedure": "To determine the effect of compounds of Formula I on T cell responses, the following experiment was conducted. On Day O, C57BL/6 (Jackson Laboratories #000664, 6-8 weeks of age) were immunized at the base of the tail with 100 μg of hen egg lysozyme (HEL; Sigma #L7773) with complete Freund's adjuvant (CFA; Sigma #F5881). Starting on Day 0 and continuing until Day 7, mice were dosed twice a day by oral administration with vehicle (water) or the compound of Example 26 (200 mg/kg). On Day 7, opopiteal lymph nodes were removed, single cell suspensions were prepared and 500,000 cells in 200 μL were activated in 96 well plates with the indicated dose of HEL peptide. Following incubation for 72 hours at 37° C., 5% CO2, supernatants were harvested for IFNγ ELISA (R&D Systems catalog #MIF00) and proliferation was assessed using the CellTitre-Glo™ luminescent assay (Promega, Catalog #G7571) with both assays performed according to the manufacturer's protocol. ELISA plates were quantified relative to a standard curve using Molecular Devices Versamax Reader at […] and Softmax Pro software; proliferation was quantitated on a Packard TopCount instrument using luminescence protocol and data was analyzed using excel software."}, "[2]": {"test_system": "C57BL/6 recipient mice, adoptive transfer EAE model", "assay": "Adoptive Transfer Experimental Autoimmune Encephalomyelitis", "type": "in vivo, mouse", "settings": "200 mg/kg oral gavage twice daily for 26 days", "procedure": "Having observed that compounds of Formula I inhibit T cell activation in vitro and in vivo, the effect of a compound of Formula I on an autoimmune disease induced by T cells was determined using an adoptive transfer EAE model, an animal model of human multiple sclerosis (Brain (2006), 129, 1953-1971). This model relies on the injection of T cells from animals with EAE into disease-free host animals. This injection of cells is known to those skilled in the art as adoptive transfer. By injecting the animals with activated, encephalogenic T cells, this model is focused on the pathogenic stage of EAE autoimmune disease. On Day-14, C57BL/6 mice (Taconic Farms; 10 weeks old) were immunized with a disease-causing protein, MOG(35-55) peptide in complete Freund's adjuvant (Hooke Laboratories, catalog #EK-0113). On Day -3, spleens were harvested, single cell suspensions were prepared and then 5,000,000 cells/mL were stimulated with 20 μg/mL MOG(33-55) peptide (Open Biosystems), 30 ng/mL IL-12 (R&D Systems catalog #419-ML-010), 10 μg/mL anti-IFNγ antibody (BD Biosciences catalog #554408) at 37° C., 5% CO2. On Day 0, 1,500,000 of these cells were injected intravenously into the tail veins of C57BL/6 recipient mice. […] The recipient mice were scored daily days 0 through 26 using the following clinical scoring system: […]"}, "[3]": {"test_system": "C57BL/6J mice, MOG-induced EAE", "assay": "MOG(35-55)-induced Experimental Autoimmune Encephalomyelitis", "type": "in vivo, mouse", "settings": "200 mg/kg oral gavage twice daily, days 7 through 27; vehicle and untreated 3.0", "procedure": "To further determine the effect of compounds of Formula I on an autoimmune disease associated with T cells and cytokines, a MOG-induced experimental autoimmune encephalomyelitis (EAE) experiment was performed. MOG-induced EAE is an animal model of human multiple sclerosis (Brain (2006), 129, 1953-1971).\nOn Day 0, C57BL/6J mice (Jackson Laboratories #000664, 6-8 weeks of age) were injected subcutaneously with 100 μL of complete Freund's adjuvant (CFA) prepared as a 1:1 emulsion of (a) incomplete Freund's adjuvant (Difco, catalog #263910) containing 8 mg/mL m. tuberculosis H37RA (Difco, catalog #231141) and (b) phosphate buffered saline (PBS) containing 1 mg/mL MOG(35-55) peptide (California Peptide Research Inc). On the day 0 and 2, mice were injected intravenously with 200 ng of pertussis toxin (List Biological Laboratories, catalog #181). On day 7, the mice were randomized into treatment groups which received vehicle (distilled water) or the compound of Example 26 (200 mg/kg) administered by oral gavage twice daily from days 7 through 27.\nThe mice were scored daily on days 7 through 37 using the following clinical scoring system:\n1.5—unsteady gait, mild hind limb ataxia\n2.0—partial hind limb paralysis (hind limbs carrying weight)\n2.5—partial hind limb paralysis (hind limbs not carrying weight)\n3.0—full hind limb paralysis\n3.5—full hind limb paralysis and partial front limb paralysis"}, "MRL/MpJ-Fas<lpr> mice": {"test_system": "MRL/MpJ-Fas<lpr> mice", "assay": "MRL/lpr Lupus Model", "type": "in vivo, mouse", "settings": "200 mg/kg twice daily", "description": "MRL/lpr is considered to be an animal model of systemic lupus erythematosus (SLE), an autoimmune disease (Cohen and Maldonado 2003, Current Protocols in Immunology Chapter 15, Unit 15.20). MRL/lpr mice have a defect in the apoptosis of activated lymphocytes and over time develop a spontaneous and severe lymphoproliferative disorder characterized by enlarged lymphoid organs, auto-antibody production and kidney disease resulting in proteinuria. […] To determine the effect of compounds of Formula I in this model of SLE, the following experiment was conducted.\nMRL/MpJ-Fasand age-matched MRL/MpJ control mice (Jackson Laboratories, catalog #000485 and #000486, respectively) were treated once daily with vehicle (1% CMC/0.5% Tween 80) or twice daily with the compound of Example 26 (200 mg/kg) for 10 weeks. Body weights, lymphadenopathy and urine protein levels were monitored weekly. Urine protein levels were determined with Bayer Albustix dipsticks (Bayer catalog #2191) and scored according to the following scale:\nSerum levels of anti-ds-DNA antibody were measured by ELISA (Alpha Diagnostic, catalog #5120) on Day 28 and upon study termination. ELISA plates were quantitated using a Molecular Devices Versamax plate reader at […] and titers calculated relative using to a standard curve using a 4-parameter curve fit with Softmax Pro software."}},
  "note": "Where a name gives a salt, the structure may show the parent alone.",
  "data": [
    {"compound": "F[C@@H]1CNCCC1Oc1cccc2ccc(-c3nnc4ccccn34)nc12", "note": "(stereo in doubt) [Example 26, 2-([1,2,4]triazolo[4,3-a]pyridin-3-yl)-8-((cis)-3-fluoropiperidin-4-yloxy)quinoline dihydrochloride]", "values": [
      {"measurement": "ex vivo HEL-specific proliferation", "setting": "[1]", "result": "decreased"},
      {"measurement": "ex vivo IFNγ production", "setting": "[1]", "result": "decreased"},
      {"measurement": "disease onset (first of 2 consecutive days with clinical score >= 1)", "setting": "[2]", "result": "significant delay in disease onset"},
      {"measurement": "median day of onset", "setting": "[2]; untreated and vehicle groups day 6", "result": 11, "unit": "days"},
      {"measurement": "median maximal clinical score", "setting": "[3]", "result": 1.5},
      {"measurement": "proteinuria over time", "setting": "MRL/MpJ-Fas<lpr> mice; 10 weeks, relative to vehicle control", "result": "prevents the development of proteinuria"},
      {"measurement": "decrease in serum anti-dsDNA relative to vehicle control", "setting": "MRL/MpJ-Fas<lpr> mice; 28 days", "result": 74, "unit": "%"},
      {"measurement": "decrease in serum anti-dsDNA antibodies relative to vehicle control", "setting": "MRL/MpJ-Fas<lpr> mice; study termination (79 days of dosing)", "result": 99, "unit": "%"}
    ]}
  ]
}
